“And” between values parts separate entries of the source, which are not always exact repeats. Identical values can stand only once.
Legend:
Siglec-1 fragment = Siglec-1 fragment (Homo sapiens, UniProt Q9BZZ2); assay: Direct ESI-MS binding assay; settings: oligosaccharide moiety of the ganglioside; 3.6 µM Siglec-1 fragment, 20-140 µM ligand; table gives replicates, text mean ± SD; read-out: dissociation constant (Kd) of soluble Siglec-1 to the ganglioside oligosaccharide
Protocol: The affinities of ganglioside (GM1, GM2, GM3, and GD1a) oligosaccharides (L) for the Siglec-1 fragment were measured by the direct ESI-MS assay[1]. A reference protein (Pref) was added to the ESI solutions in order to correct mass spectra for any nonspecific binding that occurred during the ESI process[2]. […] Direct ESI-MS measurements were performed with nanoflow ESI in positive ion mode (voltage ~1 kV) on a Q-Exactive Orbitrap mass spectrometer (Thermo Fisher Scientific). Automatic gain control (AGC) target, the maximum inject time, capillary temperature, and S-lens RF level were set to 1 × 10^6, 100 ms, 150, and 100 °C, respectively. The resolution was 17,500 at m/z 200. Data acquisition and processing were carried out using Xcalibur (Thermo Fisher, version 4.1).

WT Siglec-6 CHO cells = molecular target: T1, WT Siglec-6 CHO cells (Homo sapiens, UniProt O43699); assay: Cell assay (liposome/EV binding, flow cytometry);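 on liposome binding, fluorescence signal (replicates): AF647 fluorescence intensity from 0.1 mol% AF647–PEG45–DSPE in liposomes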; format: cell-based; settings: for Binding of liposomes to WT Siglec-6 CHO cells relative to liposomes formulated without a ligand (Fig. 3c): 3 mol% glycolipid, Cer = native ganglioside, Amide = amide-linked nGL; for Binding of liposomes to WT Siglec-6 CHO cells relative to liposomes formulated without a ligand (Fig. 3c) / Binding of nGL liposomes relative to liposomes formulated with 3 mol% nGL 5 (Fig. 3g): replicates; for nGLL binding to WT Siglec-6 CHO cells (in words): 3 mol% nGL in liposomes; for Binding of nGL liposomes relative to liposomes formulated with 3 mol% nGL 5 (Fig. 3g): WT Siglec-6 CHO cells
T1 construct: expressed in transfected cells
Protocol: (§1) Stock lipids (DSPC, Cholesterol, PEG45–DSPE) solutions were prepared by solvating the lipids in chloroform. An appropriate volume of each lipid solution was transferred to a glass test tube to reach the desired mol% of the component. The chloroform was then removed under N2 gas to yield a lipid thin film. Once dry, 100 µL of DMSO was added to the lipid-containing test tube and then the functional lipids (ganglioside, AF647–PEG45–DSPE, Siglec ligand–PEG45–DSPE, pHrodo–PEG45–DSPE, NGL) was added from their respect DMSO stock solution. The lipid mixture was then stored at −80 °C until completely frozen at which point excess DMSO was removed via lyophilization. Dry lipids were then stored at −80 °C until they were extruded. Lipid suppliers can be found in Supplementary Table 4.
(§2) Dry lipids were then hydrated in 1 mL of PBS. The lipids were then sonicated in a bath sonicator in a cycle of 1 min on, 5 min off for a total of five cycles. Liposomes were then extruded using an Avanti mini extruder first using an 800 nm filter and then a 100 nm filter yielding liposomes that were 130 ± 35 nm (Supplementary Table 5) measured using a Malvern Panalytical Zetasizer Nano S. Liposomes were stored at 4 °C.
(§3) 200,000 cells/well were plated into a 96-well U-bottom microplate and centrifuged at 300 × g for 5 min. The cells were then resuspended in 50 µL of 50 µM liposome/50 µg/mL (protein concentration) of EV solution in DMEM F12 5% FBS and incubated at 37 °C for 30 min. Excess liposomes were then removed via centrifuged at 300 × g for 5 min followed by washing the cells with FACS solution. The cells were then resuspended in (1:250 V/V) anti-Siglec-flow buffer (1% V/V FBS, 500 µM, EDTA Hank’s Balanced Salt Solution pH 7.4), solution and left to rest on ice for 30 min. The cells were then centrifuged again at 300 × g for 5 min and the cells were resuspended in FACS buffer solution and were then ready for analysis by flow cytometry. Information regarding antibody clone, catalog number supplier, label isotype, and dilution can be found in Supplementary Table 6. The Siglec-positive cells were gated on for liposome-binding analysis (Supplementary Fig. 1b).
(§4) Flow cytometry measurements were collected on a 5-laser Fortessa X-20 (BD Bioscience). All the resulting data were analyzed using FlowJo (10.5.3) software (BD Biosciences).

R122A Siglec-6 CHO cells = molecular target: T2, R122A Siglec-6 CHO cells (Homo sapiens, UniProt O43699, R122A); assay: Cell assay (liposome/EV binding, flow cytometry);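 on liposome binding, fluorescence signal (replicates): AF647 fluorescence intensity from 0.1 mol% AF647–PEG45–DSPE in liposomes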; format: cell-based; settings: for nGLL binding to R122A Siglec-6 CHO cells (in words): 3 mol% nGL in liposomes, compared to 3 mol% 5; for Binding of nGL liposomes relative to liposomes formulated with 3 mol% nGL 5 (Fig. 3g): R122A Siglec-6 CHO cells, replicates; for liposome binding, fluorescence signal (replicates): sheet Figure S18b, cells not given
T2 construct: expressed in transfected cells
Protocol: as §1, §2, §3, §4

WT Siglec-1 CHO cells = molecular target: T3, WT Siglec-1 CHO cells (Homo sapiens, UniProt Q9BZZ2); assay: Cell assay (liposome/EV binding, flow cytometry); format: cell-based; design: GM1 liposome binding to Siglec-1 CHO cells, flow cytometry (Fig. 1b) / Binding of liposomes with increasing ganglioside content against Siglec-1 CHO cells (Fig. 1c) / Liposome binding to Siglec-1-expressing CHO cells in the cell assay (Fig. 1f): unit not given here
T3 construct: expressed in transfected cells
Protocol: as §1, §2, §3, §4

[1] = test system: untransfected (UT) CHO cells; assay: Cell assay (liposome/EV binding, flow cytometry); format: cell-based, Chinese Hamster; settings: sheet Figure S22b, CHO;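 further: AF647 fluorescence intensity from 0.1 mol% AF647–PEG45–DSPE in liposomes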
Protocol: as §1, §2, §3, §4

[2] = sheet Figure S17, cells not given, three experiments, each with its own Naked control
[3] = sheet Figure S18a, cells not given

T2 sequence (O43699 27-453 R122A): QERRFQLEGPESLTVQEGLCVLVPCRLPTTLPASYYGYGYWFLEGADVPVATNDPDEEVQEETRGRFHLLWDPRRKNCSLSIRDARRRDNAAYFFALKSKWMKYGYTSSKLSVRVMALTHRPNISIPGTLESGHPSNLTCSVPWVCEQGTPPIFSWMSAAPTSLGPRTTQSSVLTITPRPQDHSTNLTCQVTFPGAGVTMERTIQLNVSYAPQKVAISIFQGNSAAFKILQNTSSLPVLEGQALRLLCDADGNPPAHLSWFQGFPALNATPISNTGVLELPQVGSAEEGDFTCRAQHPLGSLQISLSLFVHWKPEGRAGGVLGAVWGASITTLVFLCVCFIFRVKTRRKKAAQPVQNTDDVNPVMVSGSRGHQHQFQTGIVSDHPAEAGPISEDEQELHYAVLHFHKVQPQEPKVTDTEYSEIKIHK
T3 sequence (Q9BZZ2 20-1709): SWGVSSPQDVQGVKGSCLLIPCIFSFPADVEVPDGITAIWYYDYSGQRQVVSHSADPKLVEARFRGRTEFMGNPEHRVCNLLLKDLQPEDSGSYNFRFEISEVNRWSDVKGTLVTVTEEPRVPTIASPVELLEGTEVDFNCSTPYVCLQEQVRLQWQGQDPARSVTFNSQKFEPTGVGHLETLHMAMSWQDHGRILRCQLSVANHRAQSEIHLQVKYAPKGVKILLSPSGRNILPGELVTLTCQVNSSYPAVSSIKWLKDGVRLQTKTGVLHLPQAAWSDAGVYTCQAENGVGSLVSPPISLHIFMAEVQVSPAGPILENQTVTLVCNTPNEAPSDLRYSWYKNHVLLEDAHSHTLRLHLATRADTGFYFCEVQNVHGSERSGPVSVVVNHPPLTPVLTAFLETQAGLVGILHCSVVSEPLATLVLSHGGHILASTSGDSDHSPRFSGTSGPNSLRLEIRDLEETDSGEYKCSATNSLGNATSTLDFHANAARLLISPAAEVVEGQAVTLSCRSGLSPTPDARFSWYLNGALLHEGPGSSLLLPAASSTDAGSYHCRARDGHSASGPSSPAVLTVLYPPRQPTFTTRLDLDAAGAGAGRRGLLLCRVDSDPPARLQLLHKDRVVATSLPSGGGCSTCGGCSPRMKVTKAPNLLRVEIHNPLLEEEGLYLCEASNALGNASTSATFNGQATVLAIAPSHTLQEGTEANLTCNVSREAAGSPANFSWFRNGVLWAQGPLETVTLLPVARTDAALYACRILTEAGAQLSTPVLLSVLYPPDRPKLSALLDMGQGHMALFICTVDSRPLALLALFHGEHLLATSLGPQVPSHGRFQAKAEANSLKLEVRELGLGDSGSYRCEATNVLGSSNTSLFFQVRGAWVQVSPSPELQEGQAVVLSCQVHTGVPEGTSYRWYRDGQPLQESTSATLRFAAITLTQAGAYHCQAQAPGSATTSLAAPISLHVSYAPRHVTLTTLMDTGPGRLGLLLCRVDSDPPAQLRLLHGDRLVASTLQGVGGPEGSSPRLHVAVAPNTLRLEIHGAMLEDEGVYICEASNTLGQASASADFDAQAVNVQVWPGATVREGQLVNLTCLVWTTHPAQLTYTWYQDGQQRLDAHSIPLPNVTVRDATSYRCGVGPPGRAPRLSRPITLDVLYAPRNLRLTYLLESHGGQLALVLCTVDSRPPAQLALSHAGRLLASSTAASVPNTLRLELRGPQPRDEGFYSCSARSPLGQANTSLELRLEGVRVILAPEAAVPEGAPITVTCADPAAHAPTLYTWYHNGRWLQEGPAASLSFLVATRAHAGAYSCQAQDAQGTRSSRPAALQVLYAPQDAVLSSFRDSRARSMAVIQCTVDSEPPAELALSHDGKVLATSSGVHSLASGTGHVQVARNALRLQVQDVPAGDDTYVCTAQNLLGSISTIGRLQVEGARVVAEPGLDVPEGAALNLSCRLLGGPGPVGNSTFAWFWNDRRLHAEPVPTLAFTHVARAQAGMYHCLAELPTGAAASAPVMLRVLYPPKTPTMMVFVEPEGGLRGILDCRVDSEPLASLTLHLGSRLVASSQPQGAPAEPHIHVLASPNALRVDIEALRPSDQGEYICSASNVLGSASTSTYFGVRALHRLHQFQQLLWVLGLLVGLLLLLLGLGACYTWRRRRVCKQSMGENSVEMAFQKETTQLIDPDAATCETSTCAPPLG
T1 sequence (O43699 27-453): as the sequence (O43699 27-453 R122A) above, with A96R counted along it
Chain of Siglec-1 fragment (Q9BZZ2 20-136 limits assumed): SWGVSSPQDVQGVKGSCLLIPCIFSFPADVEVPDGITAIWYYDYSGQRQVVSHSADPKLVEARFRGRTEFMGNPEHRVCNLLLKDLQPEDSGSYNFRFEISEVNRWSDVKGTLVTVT

Row | Molecule | nGLL binding to WT Siglec-6 CHO cells (in words) (WT Siglec-6 CHO cells) | Binding of nGL liposomes relative to liposomes formulated with 3 mol% nGL 5 (Fig. 3g) (WT Siglec-6 CHO cells) | liposome binding, fluorescence signal (replicates) (WT Siglec-6 CHO cells; [3]) | Binding of nGL liposomes relative to liposomes formulated with 3 mol% nGL 5 (Fig. 3g) (R122A Siglec-6 CHO cells) | liposome binding, fluorescence signal (replicates) (R122A Siglec-6 CHO cells) | other results
1 | CC(=O)N[C@H]1[C@H]([C@H](O)[C@H](O)CO)O[C@@](O[C@H]2[C@@H](O)[C@@H](CO)O[C@@H](O[C@H]3[C@H](O)[C@@H](O)C(O)O[C@@H]3CO)[C@@H]2O)(C(=O)O)C[C@@H]1O (stereo partly drawn) [GM3 trisaccharide, α-Neup5Ac-(2 → 3)-β-lactose] | – | – | – | – | – | Kd (Siglec-1 fragment): 500 ± 100 µM
2 | CCCCCCCCCCCCCCCCOCC(COCCCCCCCCCCCCCCCC)OCC(=O)NCCO[C@@H]1O[C@H](CO)[C@@H](O[C@@H]2O[C@H](CO)[C@H](O[C@@H]3O[C@H](CO)[C@H](O)[C@H](O[C@@H]4O[C@H](CO)[C@H](O)[C@H](O)[C@H]4O)[C@H]3NC(C)=O)[C@H](O[C@]3(C(=O)O)C[C@H](O)[C@@H](NC(C)=O)[C@H]([C@H](O)[C@H](O)CO)O3)[C@H]2O)[C@H](O)[C@H]1O [nGL 3] | bound minimally | – | – | – | – | Binding of liposomes to WT Siglec-6 CHO cells relative to liposomes formulated without a ligand (Fig. 3c) (WT Siglec-6 CHO cells; listed as GM1 Amide): 0.68 and 0.67 and 0.66 and 0.75; liposome binding, fluorescence signal (replicates) (WT Siglec-6 CHO cells; [2]): 541 and 535 and 525 and 596
3 | CCCCCCCCCCCCCCCCOCC(COCCCCCCCCCCCCCCCC)OCC(=O)NCCO[C@@H]1O[C@H](CO)[C@@H](O[C@@H]2O[C@H](CO)[C@H](O)[C@H](O[C@]3(C(=O)O)C[C@H](O)[C@@H](NC(C)=O)[C@H]([C@H](O)[C@H](O)CO)O3)[C@H]2O)[C@H](O)[C@H]1O [nGL 4] | – | – | – | – | – | Binding of liposomes to WT Siglec-6 CHO cells relative to liposomes formulated without a ligand (Fig. 3c) (WT Siglec-6 CHO cells; listed as GM3 Amide): 2.34 and 2.47 and 2.38 and 2.75; liposome binding, fluorescence signal (replicates) (WT Siglec-6 CHO cells; [2]): 713 and 752 and 727 and 839
4 | CCCCCCCCCCCCCCCCOCC(COCCCCCCCCCCCCCCCC)OCc1cn(CCO[C@@H]2O[C@H](CO)[C@@H](O[C@@H]3O[C@H](CO[C@]4(C(=O)O)C[C@H](O)[C@@H](NC(C)=O)[C@H]([C@H](O)[C@H](O)CO)O4)[C@H](O)[C@H](O)[C@H]3O)[C@H](O)[C@H]2O)nn1 [nGL 8] | bound minimally | 0.05 and 0.03 and 0.06 and 0.07 | 720 and 670 and 748 and 768 | 0.06 and 0.08 and 0.07 | 599 and 635 and 605 | nGLL binding to R122A Siglec-6 CHO cells (in words) (R122A Siglec-6 CHO cells): bound minimally
5 | asialo GM1 [GA1] | – | – | – | – | – | liposome binding, fluorescence signal (replicates) (WT Siglec-6 CHO cells; sheet Figure S22b, Sig-6): 66 and 69 and 61 and 64; Liposome binding to Siglec-1-expressing CHO cells in the cell assay (Fig. 1f) (WT Siglec-1 CHO cells; 3% glycolipid in liposome, replicates): 71 and 68; binding to WT Siglec-1 CHO cells (in words) (WT Siglec-1 CHO cells; cell assay): did not mediate binding; liposome binding, fluorescence signal (replicates) [1]: 60 and 57 and 55 and 52

More lines, main results first:

Row | nGLL binding to WT Siglec-6 CHO cells (in words) (WT Siglec-6 CHO cells) | Binding of nGL liposomes relative to liposomes formulated with 3 mol% nGL 5 (Fig. 3g) (WT Siglec-6 CHO cells) | liposome binding, fluorescence signal (replicates) (WT Siglec-6 CHO cells; [3]) | Binding of nGL liposomes relative to liposomes formulated with 3 mol% nGL 5 (Fig. 3g) (R122A Siglec-6 CHO cells) | liposome binding, fluorescence signal (replicates) (R122A Siglec-6 CHO cells) | Molecule | other results
6 | modestly lower | 0.77 and 0.6 and 0.59 and 0.63 | 2520 and 2097 and 2058 and 2158 | 0.83 and 0.93 and 0.81 and 1.01 | 1939 and 2127 and 1908 and 2268 | CCCCCCCCCCCCCCCCOCC(COCCCCCCCCCCCCCCCC)OCc1cn(CCO[C@@H]2O[C@H](CO)[C@@H](O[C@@H]3O[C@H](CO)[C@H](O)[C@H](O[C@]4(C(=O)O)C[C@H](O)[C@@H](NC(C)=O)[C@H]([C@H](O)[C@H](O)CO)O4)[C@H]3O)[C@H](O)[C@H]2NC(C)=O)nn1 [nGL 9] | –
7 | bound minimally | 0.19 and 0.16 and 0.21 | 1069 and 1003 and 987 and 1125 | 0.23 and 0.15 and 0.27 | 899 and 894 and 758 and 962 | CCCCCCCCCCCCCCCCOCC(COCCCCCCCCCCCCCCCC)OCc1cn(CCO[C@@H]2O[C@H](CO)[C@@H](O[C@@H]3O[C@H](CO[C@]4(C(=O)O)C[C@H](O)[C@@H](NC(C)=O)[C@H]([C@H](O)[C@H](O)CO)O4)[C@H](O)[C@H](O)[C@H]3O)[C@H](O)[C@H]2NC(C)=O)nn1 [nGL 10] | nGLL binding to R122A Siglec-6 CHO cells (in words) (R122A Siglec-6 CHO cells): bound minimally
